Assay results taken from PubChem BioAssay (NCI).
Values joined by “and” are separate entries in the source; they are usually repeats but may differ in a detail not shown here. Equal entries are not always repeated.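 Results reflect a 48-hour exposure of cells in 96-well plates to compound at five concentrations. The concentration for 50% growth inhibition is given as GI50. TGI denotes the concentration required for complete inhibition of growth.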

How the values were obtained:
Experiment in all cases: NCI tumour cell line growth inhibition, 48 h
SNB-19 CNS = system: SNB-19 CNS
PC-3 prostate = system: PC-3 prostate
CAKI-1 renal = system: CAKI-1 renal
OVCAR-8 ovarian = system: OVCAR-8 ovarian
LOX IMVI melanoma = system: LOX IMVI melanoma
HCT-15 colon = system: HCT-15 colon
CCRF-CEM leukemia = system: CCRF-CEM leukemia
EKVX NSCLC = system: EKVX NSCLC
M14 melanoma = system: M14 melanoma
BT-549 breast = system: BT-549 breast

Compound | GI50 (SNB-19 CNS) | TGI (SNB-19 CNS) [µM] | GI50 (PC-3 prostate) | TGI (PC-3 prostate) [µM] | GI50 (CAKI-1 renal) | TGI (CAKI-1 renal) [µM] | GI50 (OVCAR-8 ovarian) | TGI (OVCAR-8 ovarian) [µM] | GI50 (LOX IMVI melanoma) [µM] | TGI (LOX IMVI melanoma) | GI50 (HCT-15 colon) | TGI (HCT-15 colon) [µM] | GI50 (CCRF-CEM leukemia) [µM] | TGI (CCRF-CEM leukemia) [µM] | GI50 (EKVX NSCLC) | TGI (EKVX NSCLC) [µM] | GI50 (M14 melanoma) | TGI (M14 melanoma) | GI50 (BT-549 breast) | TGI (BT-549 breast) [µM]
Nc1nc(Nc2ccc(C3CCC(N4CCOCC4)CC3)cc2)nn1-c1ccccn1 (centres undefined) | 7.38 µM | > 100 | 5.76 µM | > 100 | 2.44 µM | > 52.2 | 11.6 µM | > 100 | 3.24 | 9.37 µM | 3.6 µM | > 100 | 3.25 | 55.9 | 8.21 µM | > 100 | 4.36 µM | > 36.8 µM | 2.52 µM | 6.54
CS[C@]12C(=O)C[C@@]3(C)[C@@H](CC[C@]3(O)C(=O)CO)[C@@H]1CCC1=CC(=O)CC[C@@]12C |  | > 100 |  | > 100 |  | > 100 |  | > 100 |  | > 100 µM |  | > 100 |  | > 100 |  | > 100 |  | > 100 µM |  | > 100
Cc1c2c(nn1C)CSCc1cc(n(C)n1)CSc1cc(c3ccccc3c1)OCCCc1c(C(=O)O)n(C)c3c-2c(Cl)ccc13 | 3.56 µM | 13.9 | 3.42 µM | 13.2 | 4.98 µM | 17.4 | 4.62 µM | 18.9 | 2.87 | 12.1 µM | 5.83 µM | 18.9 | 1.73 | 10.6 | 3.86 µM | 15.7 | 2.68 µM | 11.1 µM | 2.52 µM | 11.2
O=C(NC[C@H](O)CO)c1ccncc1Nc1ccc(I)cc1F | > 10 µM and 21.2 µM | > 100 | > 10 µM and 61 µM | > 100 | 0.59 µM and 1.38 µM | > 100 | > 10 µM and 37.4 µM | > 100 |  | > 10 µM and 22.4 µM | 3.53 µM and 5.62 µM | > 100 | > 100 | > 100 | 0.194 µM and 0.313 µM | > 100 | 0.0031 µM and < 0.01 µM | > 3.52 µM and 10.8 µM | > 10 µM and 23.3 µM | > 95
CCOc1ccccc1N=Nc1c(C)[nH]n(-c2nc(-c3ccccc3)cs2)c1=O | 43.1 µM | > 100 | 34.7 µM | > 100 | > 54.2 µM | > 100 | 29 µM | > 100 | > 100 | > 100 µM | > 100 µM | > 100 | > 100 | > 100 | 32.6 µM | > 100 | > 100 µM | > 100 µM | 29.2 µM | > 100
COc1c2c(nc3ccccc13)-c1cc3c(c(=O)n1C2)COC(=O)C3(O)CC(=O)N1CCOCC1 (centres undefined) |  | 83.6 |  | > 100 |  | 54 |  | 33.8 |  | 16.5 µM |  | > 100 |  | 3.95 |  | > 93.6 |  | 41.4 µM |  | > 53.1
O=C(NN1C(=O)CSC12CCCC2)c1[nH]c2ccc(Br)cc2c1-c1ccccc1 | 54.1 µM | > 100 | 38.6 µM | > 100 | 32.8 µM | > 100 | 41 µM | > 100 | 45.5 | > 100 µM | 43.2 µM | > 100 | 40.1 | > 100 | > 100 µM | > 100 | 49.1 µM | > 100 µM | 93.5 µM | > 100
CC#CC(=O)SCCNC(=O)CC |  | > 10 |  | > 10 |  | > 10 |  | > 10 |  | > 10 µM |  | > 10 |  | > 8.72 |  | > 10 |  | > 10 µM |  | > 10
C=C1C(=O)OC2/C=C(/C)C(OC(C)=O)CC(O)/C(C)=C\C(OC(=O)/C(C)=C\C)C12 (centres undefined) |  | > 100 |  | > 100 |  | 86.4 |  | > 100 |  | > 100 µM |  | > 100 |  | > 100 |  | > 100 |  | > 100 µM |  | > 100
